Data from patent US6531496B1 (Bayer Aktiengesellschaft, priority 1999, dated 2003).

Assay: logP by HPLC (EEC Directive 79/831 Annex V. A8, gradient method)
Type: physicochemical
[1] = HPLC, gradient method, acetonitrile/0.1% aqueous phosphoric acid, Table 1
[2] = Table 4, starting materials of formula (IV)
[3] = Table 3, intermediates of formula (II-a)
[4] = gradient of acetonitrile/0.1% aqueous phosphoric acid, HPLC, gradient method, acetonitrile/0.1% aqueous phosphoric acid, Table 1

| SMILES | logP [1] | other results |
| --- | --- | --- |
| O=[N+]([O-])c1ccc(C=Cc2cccc(OC3=NS(=O)(=O)CS3)c2)c([N+](=O)[O-])c1 (mixture of isomers) [Example 81] | 3.22 |  |
| CC(C)(C)ON=C(c1ccccc1)c1cccc(OC2=NS(=O)(=O)CS2)c1 [Example 43] | 4.4 |  |
| CSC1=NS(=O)(=O)CC(C)(c2ccccc2)S1 (centres unmarked) [IV-5] |  | chromatographic logP [2]: 2.65 |
| O=S1(=O)CSC(Oc2ccc3[nH]ccc3c2)=N1 [Example 155] |  | chromatographic logP (Table 2): 1.86 |
| O=c1c2ccccc2oc2cc(OC3=NS(=O)(=O)CS3)ccc12 [Example 152] |  | chromatographic logP (Table 2): 2.52 |
| O=S1(=O)CSC(Oc2ccc(N=Nc3ccccc3)cc2OC2=NS(=O)(=O)CS2)=N1 [Example 51] | 3.06 |  |
| CCC(=O)c1ccccc1OC1=NS(=O)(=O)CS1 [Example 57] | 2.04 |  |
| COc1cc(C=Cc2ccccc2)cc(OC2=NS(=O)(=O)CS2)c1 (mixture of isomers) [Example 87] | 3.62 |  |
| N#CC(C#N)=Cc1cccc(OC2=NS(=O)(=O)CS2)c1 [Example 38] | 1.59 |  |
| O=C(c1ccc(Cl)cc1)c1ccc(OC2=NS(=O)(=O)CS2)cc1 [Example 86] | 3.17 |  |
| COC(=O)/C(C#N)=C1/Oc2ccc(OC3=NS(=O)(=O)CS3)cc2S1 [Example 151] |  | chromatographic logP (Table 2): 2.31 |
| CSc1nnc(C(C)(C)C)c(=O)n1N=Cc1cccc(OC2=NS(=O)(=O)CS2)c1 [Example 69] | 3.43 |  |
| CC1(C)Cc2cccc(OC3=NS(=O)(=O)CS3)c2O1 [Example 158] |  | chromatographic logP (Table 2): 2.66 |
| COC=C(C(=O)OC)c1ccccc1OC1=NS(=O)(=O)CS1 [Example 5] | 2.03 |  |
| CON=C(C(=O)NOCc1ccccc1)c1ccccc1OC1=NS(=O)(=O)CS1 [Example 10] | 2.18 |  |
| O=S1(=O)CSC(Oc2ccc(-c3nc4ccccc4o3)cc2)=N1 [Example 45] | 2.88 |  |
| N#CCc1ccccc1OC1=NS(=O)(=O)CS1 [Example 8] | 1.68 |  |
| O=S1(=O)CSC(Oc2ccc3c(c2)CCC3)=N1 [Example 157] |  | chromatographic logP (Table 2): 2.8 |
| O=c1oc2cc(OC3=NS(=O)(=O)CS3)ccc2cc1-c1ccccc1 [Example 147] |  | chromatographic logP (Table 2): 2.77 |
| Cc1nc2cc(OC3=NS(=O)(=O)CS3)ccc2s1 [Example 148] |  | chromatographic logP (Table 2): 1.92 |
| O=S1(=O)CSC(Oc2ccccc2CC2=NOCCO2)=N1 [Example 6] | 1.69 |  |
| O=S1(=O)CSC(Oc2ccccc2C(F)(F)F)=N1 [Example 131] | 2.49 |  |

| SMILES | logP [1] | other results |
| --- | --- | --- |
| O=C1Cc2cc(OC3=NS(=O)(=O)CS3)ccc2O1 [Example 143] |  | chromatographic logP (Table 2): 0.48 |
| C=CCON=C(C)c1ccc(OC2=NS(=O)(=O)CS2)cc1 [Example 23] | 3.15 |  |
| CC(C)Oc1ccccc1OC1=NS(=O)(=O)CS1 [Example 129] | 2.7 |  |
| Cc1c(C(=O)O)c2cc(OC3=NS(=O)(=O)CS3)ccc2n1C [Example 144] |  | chromatographic logP (Table 2): 2.65 |
| CSC1=NS(=O)(=O)CC(c2ccccc2)S1 (centres unmarked) [IV-6] |  | chromatographic logP [2]: 2.54 |
| O=S1(=O)CC(c2ccccc2)SC(Cl)=N1 (centres unmarked) [II-a-1] |  | chromatographic logP [3]: 2.63 |
| CO/N=C(/C)c1cccc(OC2=NS(=O)(=O)CS2)c1 [Example 26] |  | chromatographic logP [4]: 2.65 |
| O=S1(=O)CSC(Oc2cccc3sc4ccccc4c23)=N1 [Example 153] |  | chromatographic logP (Table 2): 3.31 |
| CC1(c2ccccc2)CS(=O)(=O)N=C(Cl)S1 (centres unmarked) [II-a-2] |  | chromatographic logP [3]: 2.75 |
| CON=C(C(=O)NCc1ccccc1)c1ccccc1OC1=NS(=O)(=O)CS1 [Example 9] | 2.13 |  |
| CSC1=NS(=O)(=O)C(C)S1 (centres unmarked) [IV-3] |  | chromatographic logP [2]: 1.38 |
| O=C(C=Cc1ccccc1)c1ccc(OC2=NS(=O)(=O)CS2)cc1 [Example 67] | 3.06 |  |
| O=[N+]([O-])c1ccc(C=Cc2cccc(OC3=NS(=O)(=O)CS3)c2[N+](=O)[O-])cc1 (mixture of isomers) [Example 85] | 3.28 |  |
| Cc1ccc(OC2=NS(=O)(=O)CS2)c(C)c1 [Example 127] |  | chromatographic logP [4]: 2.65 |
| COc1cc(C=CN2C(=O)c3ccccc3C2=O)ccc1OC1=NS(=O)(=O)CS1 (mixture of isomers) [Example 79] | 2.63 |  |
| CON=C(C1=NOCCO1)c1ccccc1OC1=NS(=O)(=O)CS1 [Example 4] | 1.77 |  |
| CC(C)(CCl)C(=O)Nc1ccc(OC2=NS(=O)(=O)CS2)c(Cl)c1Cl [Example 13] |  | chromatographic logP [4]: 2.98 |
| CCCCc1oc2ccccc2c1C(=O)c1ccc(OC2=NS(=O)(=O)CS2)cc1 [Example 71] | 4.28 |  |
| CCN(CC)C(=O)c1ccc(OC2=NS(=O)(=O)CS2)c(NC)c1 [Example 64] | 2 |  |
| Cc1cnc(Sc2ccc(OC3=NS(=O)(=O)CS3)cc2)nc1C [Example 63] | 2.55 |  |
| O=S1(=O)CSC(Oc2ccc3c(c2)Nc2ccccc2S3(=O)=O)=N1 [Example 154] |  | chromatographic logP (Table 2): 1.93 |
| O=S1(=O)CSC(Oc2ccc(N=Nc3ccccc3)cc2)=N1 [Example 47] | 3.47 |  |

| SMILES | logP [1] | other results |
| --- | --- | --- |
| Cc1cc(OC2=NS(=O)(=O)CS2)ccc1Sc1ccc([N+](=O)[O-])cc1C [Example 84] | 3.94 |  |
| CSC1=NS(=O)(=O)C(C(C)C)S1 (centres unmarked) [IV-4] |  | chromatographic logP [2]: 2.8 |
| CC(=NOCc1ccccc1)c1ccc(OC2=NS(=O)(=O)CS2)c(C)c1 [Example 18] | 3.92 |  |
| O=[N+]([O-])c1ccc(/C=C/c2ccc(OC3=NS(=O)(=O)CS3)cc2)cc1 [Example 50] | 3.3 |  |
| CON=C(C)c1ccc(OC2=NS(=O)(=O)CS2)c(C)c1 [Example 16] | 2.88 |  |
| O=[N+]([O-])c1ccc(Sc2ccc(OC3=NS(=O)(=O)CS3)cc2)cc1 [Example 121] | 3.28 |  |
| COC(=O)c1ccc(N=Cc2ccc(OC3=NS(=O)(=O)CS3)cc2)cc1 [Example 68] | 1.59 |  |
| O=C(C=Cc1ccccc1)c1ccccc1OC1=NS(=O)(=O)CS1 [Example 130] | 2.91 |  |
| COc1ccc(C(=O)c2ccc(OC3=NS(=O)(=O)CS3)cc2)cc1 [Example 66] | 2.67 |  |
| O=S1(=O)CSC(Oc2ccc(S(=O)(=O)c3ccc(Cl)cc3)cc2)=N1 [Example 83] | 2.72 |  |
| CN1C(=O)Nc2cc(OC3=NS(=O)(=O)CS3)ccc2SC1=O [Example 149] |  | chromatographic logP (Table 2): 1.55 |
| Cc1nc(Sc2ccc(OC3=NS(=O)(=O)CS3)cc2)sc1C [Example 62] | 2.91 |  |
| COc1cccc(OC2=NS(=O)(=O)CS2)c1OC [Example 118] | 2.12 |  |
| COC(=O)c1c(-c2ccc(-c3ccccc3)cc2)oc2ccc(OC3=NS(=O)(=O)CS3)cc12 [Example 146] |  | chromatographic logP (Table 2): 3.43 |
| O=C(c1ccc(OC2=NS(=O)(=O)CS2)cc1)c1ccc(-c2ccccc2)cc1 [Example 70] | 3.72 |  |
| COC(=O)c1ccc(N=Cc2cccc(OC3=NS(=O)(=O)CS3)c2)cc1 [Example 76] | 1.61 |  |
| CCCCCC(O)c1cccc(OC2=NS(=O)(=O)CS2)c1 (racemic) [Example 82] | 2.87 |  |
| COC(=O)Nc1ccc(C=Cc2cccc(OC3=NS(=O)(=O)CS3)c2)c(NC(=O)OC)c1 [Example 49] | 2.43 |  |
| Cc1cc(OC2=NS(=O)(=O)CS2)cc(C)c1SC#N [Example 60] | 2.55 |  |
| CON=C(C)c1cc(OC2=NS(=O)(=O)CS2)ccc1OC1=NS(=O)(=O)CS1 [Example 30] | 2.43 |  |
| O=[N+]([O-])c1ccc(Oc2ccc(OC3=NS(=O)(=O)CS3)cc2)c(Cl)c1 [Example 126] | 3.33 |  |
| O=S1(=O)CSC(Oc2cccc(C(=NOCc3ccccc3)c3ccccc3)c2)=N1 [Example 44] | 4.15 |  |

Further lines, with some results ahead:

| logP [1] | SMILES | other results |
| --- | --- | --- |
| 2.61 | COc1cc(Cl)cc(OC2=NS(=O)(=O)CS2)c1 [Example 116] |  |
| 2.79 | O=S1(=O)CSC(Oc2ccc(OC(F)(F)F)cc2)=N1 [Example 124] |  |
| 2.66 | CC(C)(C)c1cc(OC2=NS(=O)(=O)CS2)ccc1O [Example 34] |  |
| 1.82 | COc1ccc(OC2=NS(=O)(=O)CS2)cc1OC [Example 117] |  |
| 2.62 | O=S1(=O)CSC(Oc2cccc(C(F)(F)F)c2)=N1 [Example 113] |  |
| 1.83 | COc1ccc(C(C)=O)c(OC2=NS(=O)(=O)CS2)c1 [Example 75] |  |
| 2.64 | O=S1(=O)CSC(Oc2ccc(C(F)(F)F)cc2)=N1 [Example 132] |  |
| 1.48 | CC(O)c1cccc(OC2=NS(=O)(=O)CS2)c1 (racemic) [Example 80] |  |
| 2.33 | CN=Cc1ccc(OC2=NS(=O)(=O)CS2)cc1 [Example 53] |  |
| 1.93 | COC(=O)c1ccc(OC2=NS(=O)(=O)CS2)cc1C(=O)OC [Example 32] |  |
| 2.01 | N#CSCC(=O)c1ccc(OC2=NS(=O)(=O)CS2)cc1 [Example 55] |  |
| 2.57 | Cc1cccc(C)c1OC1=NS(=O)(=O)CS1 [Example 123] |  |
| 1.54 | CCS(=O)(=O)c1ccc(OC2=NS(=O)(=O)CS2)cc1 [Example 59] |  |
| 2.46 | CC(=Cc1cccc(OC2=NS(=O)(=O)CS2)c1)[N+](=O)[O-] (mixture of isomers) [Example 89] |  |
| 2.35 | O=S1(=O)CSC(Oc2cccc(OC(F)(F)F)c2)=N1 [Example 134] |  |
| 1.86 | O=S1(=O)CSC(Oc2cccc(C3=NOCCO3)c2)=N1 [Example 56] |  |
| 1.69 | N#Cc1cccc(OC2=NS(=O)(=O)CS2)c1 [Example 109] |  |
| 2.52 | O=S1(=O)CSC(Oc2ccc(Br)cc2)=N1 [Example 122] |  |
| 1.36 | O=S1(=O)CSC(Oc2ccc(-c3nnco3)cc2)=N1 [Example 35] |  |
| 1.88 | COc1cc(OC2=NS(=O)(=O)CS2)ccc1C(C)=O [Example 58] |  |
| 1.39 | O=S1(=O)CSC(Oc2cccc(CCO)c2)=N1 [Example 90] |  |
| 3.07 | O=S1(=O)CSC(Oc2ccc(SC(F)(F)F)cc2)=N1 [Example 135] |  |
| 2.75 | CSc1ccc(OC2=NS(=O)(=O)CS2)cc1C [Example 54] |  |
| 2.04 | O=S1(=O)CSC(Oc2ccc(F)cc2)=N1 [Example 112] |  |
| 2.16 | CN(C)N=Cc1ccc(OC2=NS(=O)(=O)CS2)cc1 [Example 61] |  |
| 1.88 | O=S1(=O)CSC(Oc2ccc(OC3=NS(=O)(=O)CS3)cc2)=N1 [Example 88] |  |
